# Source: patent US10544143B2, “4-azaindole compounds” (BRISTOL-MYERS SQUIBB COMPANY, priority 2017, dated 2020)
# Read-outs that look alike come from different tables or passages of the source.
# Legend:
# human TLR7 = human TLR7 (Homo sapiens (Human), UniProt Q9NYK1); experiment: TLR7 inhibition reporter assay (HEK-Blue SEAP); type: cell-based
# human TLR8 = human TLR8 (Homo sapiens (Human), UniProt Q9NR97); experiment: TLR8 inhibition reporter assay (HEK-Blue SEAP);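 note: SEAP driven by IFN-β minimal promoter carrying NF-κB and AP-1 sites, compounds dosed 0.05 nM to 50 µM for 22 h, inhibition scaled between agonist-plus-DMSO and reference-inhibitor wells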
# human TLR9 = human TLR9 (Homo sapiens (Human), UniProt Q9NR96); experiment: TLR9 inhibition reporter assay (HEK-Blue SEAP);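 note: SEAP driven by an IFN-β minimal promoter with NF-κB and AP-1 sites, read after 22 h, compounds dosed 0.05 nM–50 µM, inhibition scaled between agonist plus DMSO and reference-inhibitor wells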
# [1] = HEK-Blue cells overexpressing human TLR7, gardiquimod 7.5 μM stimulation, SEAP reporter
# [2] = read-out: TLR8 IC50, HEK-Blue cells overexpressing human TLR8, R848 15.9 μM stimulation, SEAP reporter
# [3] = read-out: TLR9 IC50, HEK-Blue cells overexpressing human TLR9, ODN2006 5 nM stimulation, SEAP reporter
# [4] = HEK-Blue cells overexpressing human TLR7, SEAP reporter, gardiquimod 7.5 μM
# [5] = read-out: TLR8 IC50, HEK-Blue cells overexpressing human TLR8, SEAP reporter, R848 15.9 μM
# [6] = read-out: TLR9 IC50, HEK-Blue cells overexpressing human TLR9, SEAP reporter, ODN2006 5 nM
# [7] = HEK-Blue human TLR7 cells, gardiquimod 7.5 μM
# [8] = read-out: TLR8 IC50, HEK-Blue human TLR8 cells, R848 15.9 μM
# [9] = read-out: TLR9 IC50, HEK-Blue human TLR9 cells, ODN2006 5 nM
# human TLR7, sequence (Q9NYK1 27-1049): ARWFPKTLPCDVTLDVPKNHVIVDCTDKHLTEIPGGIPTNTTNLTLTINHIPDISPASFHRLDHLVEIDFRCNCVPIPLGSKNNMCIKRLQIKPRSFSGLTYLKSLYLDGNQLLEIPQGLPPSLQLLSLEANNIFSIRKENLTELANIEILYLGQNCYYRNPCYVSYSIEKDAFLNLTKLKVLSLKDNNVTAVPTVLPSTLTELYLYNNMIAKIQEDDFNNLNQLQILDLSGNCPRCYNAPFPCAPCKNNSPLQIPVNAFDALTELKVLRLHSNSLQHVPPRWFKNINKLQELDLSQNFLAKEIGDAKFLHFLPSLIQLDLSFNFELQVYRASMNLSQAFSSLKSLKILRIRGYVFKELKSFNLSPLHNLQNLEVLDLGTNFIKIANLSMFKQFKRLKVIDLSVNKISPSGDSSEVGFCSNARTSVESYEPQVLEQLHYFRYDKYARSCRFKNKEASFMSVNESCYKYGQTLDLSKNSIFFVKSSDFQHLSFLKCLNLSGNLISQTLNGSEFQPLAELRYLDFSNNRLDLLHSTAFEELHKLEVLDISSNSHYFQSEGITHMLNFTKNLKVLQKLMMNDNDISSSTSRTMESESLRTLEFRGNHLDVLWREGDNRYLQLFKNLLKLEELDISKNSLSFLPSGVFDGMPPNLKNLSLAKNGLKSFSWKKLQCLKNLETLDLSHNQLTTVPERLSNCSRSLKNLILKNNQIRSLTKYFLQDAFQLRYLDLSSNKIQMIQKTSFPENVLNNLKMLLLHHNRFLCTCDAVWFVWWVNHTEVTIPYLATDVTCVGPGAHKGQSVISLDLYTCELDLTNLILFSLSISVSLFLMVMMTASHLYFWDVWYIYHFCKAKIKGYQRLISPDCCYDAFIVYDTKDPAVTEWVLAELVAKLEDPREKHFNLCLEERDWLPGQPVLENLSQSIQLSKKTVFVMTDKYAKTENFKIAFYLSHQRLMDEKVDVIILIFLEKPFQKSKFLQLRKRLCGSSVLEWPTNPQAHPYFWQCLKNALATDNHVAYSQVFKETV
# human TLR9, sequence (Q9NR96 26-1032): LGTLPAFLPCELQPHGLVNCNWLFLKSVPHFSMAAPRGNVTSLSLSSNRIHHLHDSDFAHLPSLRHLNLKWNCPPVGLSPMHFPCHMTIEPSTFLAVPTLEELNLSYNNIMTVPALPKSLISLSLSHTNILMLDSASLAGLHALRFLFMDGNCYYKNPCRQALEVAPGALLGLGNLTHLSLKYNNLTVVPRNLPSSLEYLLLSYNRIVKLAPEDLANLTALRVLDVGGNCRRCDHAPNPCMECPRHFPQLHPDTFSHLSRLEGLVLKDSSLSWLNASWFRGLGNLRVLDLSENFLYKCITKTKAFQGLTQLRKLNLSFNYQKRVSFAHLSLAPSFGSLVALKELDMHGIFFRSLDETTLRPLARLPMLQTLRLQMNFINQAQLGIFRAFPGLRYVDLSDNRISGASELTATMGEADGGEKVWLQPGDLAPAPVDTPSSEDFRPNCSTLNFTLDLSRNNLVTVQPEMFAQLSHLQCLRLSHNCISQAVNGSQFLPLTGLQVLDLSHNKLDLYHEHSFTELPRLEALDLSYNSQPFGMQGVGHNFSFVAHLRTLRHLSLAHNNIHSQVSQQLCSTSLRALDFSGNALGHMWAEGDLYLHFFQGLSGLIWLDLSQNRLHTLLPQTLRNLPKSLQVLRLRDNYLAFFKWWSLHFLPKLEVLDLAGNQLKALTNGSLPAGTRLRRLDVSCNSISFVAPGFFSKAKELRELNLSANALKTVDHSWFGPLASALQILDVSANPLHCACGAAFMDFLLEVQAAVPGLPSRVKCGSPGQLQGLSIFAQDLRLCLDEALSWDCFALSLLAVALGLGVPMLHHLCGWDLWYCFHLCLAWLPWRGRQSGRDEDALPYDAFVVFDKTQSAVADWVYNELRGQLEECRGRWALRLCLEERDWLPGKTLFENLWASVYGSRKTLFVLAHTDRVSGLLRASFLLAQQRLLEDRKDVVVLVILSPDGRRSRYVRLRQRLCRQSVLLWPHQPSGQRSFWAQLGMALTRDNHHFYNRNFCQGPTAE
# human TLR8, sequence (Q9NR97 27-1041): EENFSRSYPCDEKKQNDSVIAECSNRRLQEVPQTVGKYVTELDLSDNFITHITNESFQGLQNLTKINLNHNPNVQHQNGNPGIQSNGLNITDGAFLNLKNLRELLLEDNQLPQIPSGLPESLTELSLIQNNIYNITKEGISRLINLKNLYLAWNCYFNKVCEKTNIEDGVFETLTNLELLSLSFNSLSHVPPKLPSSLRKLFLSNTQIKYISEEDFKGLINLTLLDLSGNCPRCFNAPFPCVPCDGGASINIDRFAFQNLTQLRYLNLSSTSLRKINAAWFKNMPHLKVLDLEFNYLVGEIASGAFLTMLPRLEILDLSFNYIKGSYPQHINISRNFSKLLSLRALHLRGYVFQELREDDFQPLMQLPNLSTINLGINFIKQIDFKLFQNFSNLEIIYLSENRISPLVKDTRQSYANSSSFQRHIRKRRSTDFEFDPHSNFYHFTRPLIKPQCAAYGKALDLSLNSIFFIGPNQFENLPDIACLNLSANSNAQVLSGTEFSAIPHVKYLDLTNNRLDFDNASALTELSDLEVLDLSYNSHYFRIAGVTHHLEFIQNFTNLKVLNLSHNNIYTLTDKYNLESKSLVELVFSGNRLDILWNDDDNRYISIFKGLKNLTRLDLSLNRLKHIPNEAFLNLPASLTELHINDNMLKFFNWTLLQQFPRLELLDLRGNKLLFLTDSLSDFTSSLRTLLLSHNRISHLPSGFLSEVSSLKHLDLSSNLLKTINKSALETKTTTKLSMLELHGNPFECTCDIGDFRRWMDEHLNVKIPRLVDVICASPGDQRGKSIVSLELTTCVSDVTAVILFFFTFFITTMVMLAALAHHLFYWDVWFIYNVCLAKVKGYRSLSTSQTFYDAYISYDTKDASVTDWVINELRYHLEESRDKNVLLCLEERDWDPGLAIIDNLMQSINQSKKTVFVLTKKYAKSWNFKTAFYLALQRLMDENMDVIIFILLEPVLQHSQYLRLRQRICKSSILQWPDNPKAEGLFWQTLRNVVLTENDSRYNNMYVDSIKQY
SMILES,IC50 (human TLR7; [1]) [nM],IC50 (human TLR8; [2]) [nM],IC50 (human TLR9; [3]) [nM],further results
Cc1c(-c2[nH]c3ccc(C4CCC(N5CCS(=O)(=O)CC5)CC4)nc3c2C(C)C)cn2ncnc2c1C (stereo not drawn) [Example 383],33,167,> 50000,–
CNC(=O)CN(C)C1CCC(c2ccc3[nH]c(-c4cc(OC)c5ncnn5c4)c(C(C)C)c3n2)CC1 (stereo not drawn) [Example 210],> 3120,> 3120,> 50000,–
CNC(=O)CNC1CC(c2ccc3[nH]c(-c4cc(OC)c5ncnn5c4)c(C(C)C)c3n2)C1 (stereo not drawn) [Example 628],–,–,–,IC50 (human TLR7; [4]): 2.1 nM; IC50 (human TLR8; [5]): 3.3 nM; IC50 (human TLR9; [6]): 343 nM
Cc1nccc(CN(Cc2ccnc(C)n2)C2CCN(c3ccc4[nH]c(-c5cn6ncnc6c(C)c5C)c(C(C)C)c4n3)CC2)n1 [Example 74],2470,2560,> 50000,–
Cc1c(-c2[nH]c3ccc(C4CCC(NCC(=O)N(C)C)CC4)nc3c2C(C)C)cn2ncnc2c1C (stereo not drawn) [Example 352],5.4,9.2,2320,–
Cc1c(-c2[nH]c3ccc(N4CCN(C(=O)CCN(C)C)C[C@@H]4C)nc3c2C(C)C)cn2ncnc2c1C [Example 811],–,–,–,IC50 (human TLR7; [7]): 0.36 nM; IC50 (human TLR8; [8]): 0.59 nM; IC50 (human TLR9; [9]): 5600 nM
COc1cc(-c2[nH]c3ccc(C4CCC(NC5COC5)CC4)nc3c2C(C)C)cn2ncnc12 (stereo not drawn) [Example 186],2.2,9.3,1010,–
COc1cc(-c2[nH]c3ccc(N4CC(NCC(=O)N(C)C)C4)nc3c2C(C)C)cn2ncnc12 [Example 18],14,14,1490,–
Cc1c(-c2[nH]c3ccc(N4CCN(C(=O)CN(C)C(C)C)C[C@H]4C)nc3c2C(C)C)cn2ncnc2c1C [Example 933],–,–,–,IC50 (human TLR7; [7]): 0.63 nM; IC50 (human TLR8; [8]): 18 nM; IC50 (human TLR9; [9]): 18400 nM
Cc1c(-c2[nH]c3ccc(N4CCC(N(C)CC(=O)N(C)C)CC4)nc3c2C(C)C)cn2ncnc2c1C [Example 997],–,–,–,IC50 (human TLR7; [7]): 2.4 nM; IC50 (human TLR8; [8]): 2.4 nM; IC50 (human TLR9; [9]): 13600 nM
Cc1cc(-c2[nH]c3ccc(C4CN(C(=O)CN(C)C)CCO4)nc3c2C(C)C)cn(C)c1=O (stereo not drawn) [Example 677],–,–,–,IC50 (human TLR7; [4]): 17 nM; IC50 (human TLR8; [5]): 53 nM; IC50 (human TLR9; [6]): > 50000 nM
COc1cc(-c2[nH]c3ccc(C4CCC(N(C)Cc5cnc(C)cn5)CC4)nc3c2C(C)C)cn2ncnc12 (stereo not drawn) [Example 202],3.8,28,2030,–
Cc1c(-c2[nH]c3ccc(N4CCN[C@H](CO)C4)nc3c2C(C)C)cn2ncnc2c1C [Example 987],–,–,–,IC50 (human TLR7; [7]): 2.9 nM; IC50 (human TLR8; [8]): 0.5 nM; IC50 (human TLR9; [9]): 11300 nM
Cc1c(-c2[nH]c3ccc(C4CC5(C4)CN(CC(C)(C)O)C5)nc3c2C(C)C)cn2ncnc2c1C [Example 1028],–,–,–,IC50 (human TLR7; [7]): 7.6 nM; IC50 (human TLR8; [8]): 2.1 nM; IC50 (human TLR9; [9]): 17000 nM
Cc1c(-c2[nH]c3ccc(C4CCC(N5CCC[C@@H]5CO)CC4)nc3c2C(C)C)cn2ncnc2c1C (stereo partly drawn) [Example 372],3.2,7.6,1460,–
CC(C)c1c(-c2cn(C)c3ncccc23)[nH]c2ccc(N3CCC(NCCS(C)(=O)=O)CC3)nc12 [Example 53],0.62,0.23,1990,–
Cc1c(-c2[nH]c3ccc(C4CCC(N5CCCC5)CC4)nc3c2C(C)C)cn2ncnc2c1C (stereo not drawn) [Example 407],–,–,–,IC50 (human TLR7; [4]): 7.2 nM; IC50 (human TLR8; [5]): 8.5 nM; IC50 (human TLR9; [6]): 2460 nM
Cc1c(-c2[nH]c3ccc(N4CCC(N)CC4)nc3c2C(C)C)cn2ncnc2c1C [Example 50],0.49,0.39,2840,–
COCCNC1CCC(c2nc3c(C(C)C)c(-c4cc(OC)c5ncnn5c4)[nH]c3cc2C)CC1 (stereo not drawn) [Example 327],> 3120,> 3120,> 50000,–
COc1cc(-c2[nH]c3ccc(N4CC(NC5CCOCC5)C4)nc3c2C(C)C)cn2ncnc12 [Example 29],4.6,2.7,2830,–
"Cc1c(-c2[nH]c3ccc(N4CCC(NC5COC5)C4)nc3c2C(C)C)cn2ncnc2c1C (racemic) [Example 164, 1-(2-(7,8-dimethyl-[1,2,4]triazolo[1,5-a]pyridin-6-yl)-3-isopropyl-1H-pyrrolo[3,2-b]pyridin-5-yl)-N-(oxetan-3-yl)pyrrolidin-3-amine]",33,2,19800,–
COc1cc(-c2[nH]c3ccc(C4CCC(N(C)CC(N)=O)CC4)nc3c2C(C)C)cn2ncnc12 (stereo not drawn) [Example 225],4,35,3360,–
Cc1c(-c2[nH]c3ccc(C4CCC(NCc5cnco5)CC4)nc3c2C(C)C)cn2ncnc2c1C (stereo not drawn) [Example 416],–,–,–,IC50 (human TLR7; [4]): […]; IC50 (human TLR8; [5]): 1.2 nM; IC50 (human TLR9; [6]): 1620 nM

SMILES,IC50 (human TLR7; [1]) [nM],IC50 (human TLR8; [2]) [nM],IC50 (human TLR9; [3]) [nM],further results
Cc1c(-c2[nH]c3ccc(C4CCC(NC(C)(C)C)CC4)nc3c2C(C)C)cn2ncnc2c1C (stereo not drawn) [Example 1054],–,–,–,IC50 (human TLR7; [7]): 5.4 nM; IC50 (human TLR8; [8]): 1.7 nM; IC50 (human TLR9; [9]): 1690 nM
Cc1c(-c2[nH]c3ccc(N4C[C@@H](C)N(C(=O)CCN(C)C)[C@@H](C)C4)nc3c2C(C)C)cn2ncnc2c1C [Example 860],–,–,–,IC50 (human TLR7; [7]): 0.3 nM; IC50 (human TLR8; [8]): 0.62 nM; IC50 (human TLR9; [9]): 5060 nM
Cc1cc(-c2[nH]c3ccc(C4CN(CC#N)CCO4)nc3c2C(C)C)cn(C)c1=O (stereo not drawn) [Example 670],–,–,–,IC50 (human TLR7; [4]): 56 nM; IC50 (human TLR8; [5]): 58 nM; IC50 (human TLR9; [6]): > 50000 nM
Cc1c(-c2[nH]c3ccc(C4CCC(N(C)CCS(C)(=O)=O)CC4)nc3c2C(C)C)cn2ncnc2c1C (stereo not drawn) [Example 427],–,–,–,IC50 (human TLR7; [4]): 2.4 nM; IC50 (human TLR8; [5]): 7.6 nM; IC50 (human TLR9; [6]): 4900 nM
COc1cc(-c2[nH]c3ccc(N4CCN(C(C)CCO)CC4)nc3c2C(C)C)cn2ncnc12 (stereo not drawn) [Example 118],1.8,0.86,5580,–
Cc1c(-c2[nH]c3ccc(N4CCC(N(C)Cc5ccnn5C)CC4)nc3c2C(C)C)cn2ncnc2c1C [Example 62],3.8,1.5,11500,–
COc1cc(-c2[nH]c3ccc(C4CCC(N5CCOCC5)CC4)nc3c2C(C)C)cn2ncnc12 (stereo not drawn) [Example 194],8.6,47,3590,–
[2H]C([2H])([2H])NCC(=O)N1CCN(c2ccc3[nH]c(-c4cn5ncnc5c(C)c4C)c(C(C)C)c3n2)CC1 [Example 952],–,–,–,"IC50 (human TLR7; [7]): 1.8 nM; IC50 (human TLR8; TLR8 IC50, HEK-Blue human TLR8 cells, R848 15.9 μM): 0.7 nM; IC50 (human TLR9; TLR9 IC50, HEK-Blue human TLR9 cells, ODN2006 5 nM): 7860 nM"
Cc1c(-c2[nH]c3ccc(N4C[C@@H](C)N[C@H](C)C4)nc3c2C(C)C)cn2ncnc2c1C [Example 884],–,–,–,IC50 (human TLR7; [7]): 0.9 nM; IC50 (human TLR8; [8]): 0.17 nM; IC50 (human TLR9; [9]): 6500 nM
Cc1ncc(CN(C)C2CCC(c3ccc4[nH]c(-c5cn6ncnc6c(C)c5C)c(C(C)C)c4n3)CC2)cn1 (stereo not drawn) [Example 402],–,–,–,IC50 (human TLR7; [4]): 31 nM; IC50 (human TLR8; [5]): 43 nM; IC50 (human TLR9; [6]): 5150 nM
Cc1c(-c2[nH]c3ccc(N4CCN(CCN5CCOCC5)C(=O)C4)nc3c2C(C)C)cn2ncnc2c1C [Example 155],401,56,> 50000,–
Cc1c(-c2[nH]c3ccc(C4CCC(N(C)C)CC4)nc3c2C(C)C)cn2ncnc2c1C (stereo not drawn) [Example 356],2.8,5.1,2860,–
COc1cc(-c2[nH]c3ccc(C4CCC(N(C)C5CC5)CC4)nc3c2C(C)C)cn2ncnc12 (stereo not drawn) [Example 172],1.9,13,1790,–
Cc1c(-c2[nH]c3ccc(C4CCC(N(C)CC5(S(C)(=O)=O)CC5)CC4)nc3c2C(C)C)cn2ncnc2c1C (stereo not drawn) [Example 476],–,–,–,IC50 (human TLR7; [4]): 0.81 nM; IC50 (human TLR8; [5]): 2.6 nM; IC50 (human TLR9; [6]): 9750 nM
COc1cc(-c2[nH]c3cc(C)c(C4CCC(NCC(C)(C)O)CC4)nc3c2C(C)C)cn2ncnc12 (stereo not drawn) [Example 314],2.4,47,5510,–
CNC(=O)CN1CCC(c2ccc3[nH]c(-c4cc(OC)c5ncnn5c4)c(C(C)C)c3n2)CC1 [Example 536],–,–,–,IC50 (human TLR7; [4]): 0.66 nM; IC50 (human TLR8; [5]): 4.1 nM; IC50 (human TLR9; [6]): 2660 nM
Cc1c(-c2[nH]c3ccc(C4CCC(N(C)C5COC5)CC4)nc3c2C(C)C)cn(C)c(=O)c1C (stereo not drawn) [Example 254],72,27,8730,–
CNC(=O)CN1CCC(c2ccc3[nH]c(-c4cn(C)c(=O)c(C)c4C)c(C(C)C)c3n2)CC1 [Example 544],–,–,–,IC50 (human TLR7; [4]): 11 nM; IC50 (human TLR8; [5]): 6.4 nM; IC50 (human TLR9; [6]): 5660 nM
"COc1cc(-c2[nH]c3ccc(OC4CCN(C(C)C)CC4)nc3c2C(C)C)cn2ncnc12 [Example 603, 6-(3-isopropyl-5-((1-isopropylpiperidin-4-yl)oxy)-1H-pyrrolo[3,2-b]pyridin-2-yl)-8-methoxy-[1,2,4]triazolo[1,5-a]pyridine]",–,–,–,IC50 (human TLR7; [4]): 1.5 nM; IC50 (human TLR8; [5]): 5.2 nM; IC50 (human TLR9; [6]): 1190 nM
CNC(=O)CN(C)C1CCC(c2ccc3[nH]c(-c4cc(OC)c5ncnn5c4)c(C(C)C)c3n2)CC1 (stereo not drawn) [Example 227],2,7.7,926,–
COc1cc(-c2[nH]c3ccc(C4CCC(N(C)C)CC4)nc3c2C(C)C)cn2ncnc12 (stereo not drawn) [Example 177],0.28,2.5,148,–
COc1cc(-c2[nH]c3ccc(C4CCC(N(CC#N)CC#N)C4)nc3c2C(C)C)cn2ncnc12 (stereo not drawn) [Example 730],–,–,–,IC50 (human TLR7; [4]): 3.3 nM; IC50 (human TLR8; [5]): 23 nM; IC50 (human TLR9; [6]): 10500 nM
CC(C)c1c(-c2cn(C)c3ncccc23)[nH]c2ccc(N3CCC(N(CC(=O)N(C)C)CC(=O)N(C)C)CC3)nc12 [Example 54],2.9,2.8,10400,–
